Measurements: the NIST ThermoML archive (doi:10.1021/je700362q)
± gives the expanded uncertainty stated by the source.

Assay: refractive index (Na D-line) (dimensionless)
Conditions: 298.15 K; 101.33 kPa; Liquid; Standard Abbe refractometry

refractive index | Structure (SMILES)
1.52581 ± 0.00073 | c1ccsc1 [thiophene]
1.43329 ± 0.0012 | CCCCCCCC[n+]1ccn(C)c1.F[B-](F)(F)F [1-methyl-3-octylimidazolium tetrafluoroborate]
1.42048 ± 0.00075 | CC1CCCCC1 [methylcyclohexane]

Structure (SMILES) | refractive index
CCCCCCCCn1cc[n+](C)c1.O=S(=O)([N-]S(=O)(=O)C(F)(F)F)C(F)(F)F | 1.43331 ± 0.0012

Assay: not given
Conditions: 298.15 K; 101.33 kPa; Liquid; Vibrating tube method

mass density [kg/m3] | Structure (SMILES)
1058.5 ± 0.15 | c1ccsc1 [thiophene]
1104.42 ± 8.5 | CCCCCCCC[n+]1ccn(C)c1.F[B-](F)(F)F [1-methyl-3-octylimidazolium tetrafluoroborate]
764.97 ± 0.31 | CC1CCCCC1 [methylcyclohexane]

Structure (SMILES) | mass density [kg/m3]
CCCCCCCCn1cc[n+](C)c1.O=S(=O)([N-]S(=O)(=O)C(F)(F)F)C(F)(F)F | 1320.76 ± 12
